Data as given in patent US20240392315A1, “COMPOSITION FOR CELL ADDITION” (priority 2021, published 2024).
Like-named read-outs stand apart in the source and are kept apart here.

What was measured:
[1] = test system: HEK293 cells; type: cell-based, human
[2] = test system: HEK293 cells
[3] = test system: AAV2-producing cells
Method: In order to identify metabolic changes that occurred in AAV2-producing cells when ethanol was added and important factors, intracellular proteins were extracted from cells with and without addition of ethanol during AAV2 production, the extracted proteins were analyzed by liquid chromatography-mass spectrometry (LC-MS) and proteins whose expression increased or decreased during AAV2 production due to the presence or absence of ethanol addition were analyzed.

[4] = test system: HEK293 cells; settings: for Full rate / AAV2 particle number: ethanol 0.56 v/v %, AAV2 produced in cells
Method: AAV2 particles (whole particles with and without AAV2 genome) extracted from the culture supernatant and producing cells were measured using a commercially available AAV2 ELISA kit (PROGENE, AAV2 Titration ELISA) and according to the instructions of the kit.
The proportion (Full rate) of AAV2 particles containing the integrated AAV2 genome was calculated from the total number of AAV2 particles quantified by the ELISA method and the quantitative value of particles containing the integrated AAV2 genome obtained from ddPCR.

[5] = test system: HEK293 cells; settings: for culture supernatant genome titer / cell lysate genome titer / cell lysate genome integrity / culture supernatant genome integrity: ethanol 0.28 v/v %; for culture supernatant genome titer: 3 days after transfection
Description: In the same manner as in Example 1, “1.

[6] = test system: Hela cells
Method: AAV2 was extracted from the culture supernatant and producing cells and an AAV2 solution was prepared. Three days after adding the AAV2 solution to cultured Hela cells, the number of cells expressing the GFP protein derived from the added AAV2 was measured, and the number of cells infected by the AAV2 solution per mL was calculated.

[7] = 48 and 72 hours after transfection of plasmid DNA for AAV2 production
[8] = 48 hr, protein vs control (no ethanol addition)
[9] = 72 hr, protein vs control (no ethanol addition)
[10] = Downregulated pathway when ethanol was added, time after transfection
[11] = Upregulated pathway when ethanol was added, time after transfection

## CO [Methanol, methanol]
[1]; test (4), additive 0.33 v/v %, AAV2 in cells, control 2.40E+07
  genome titer: 2.94E+07 vg/μL
[1]; test (4), additive 0.33 v/v %, AAV2 in cells, control 53.4
  genome integrity: 58.4%

## C[S+](C)[O-] [DMSO, dimethyl sulfoxide]
[2]; test (5), additive 0.57 v/v %, day 3 after transfection, control 4.17E+06
  TFday 3 VCD: 4.58E+06 cells/mL
[2]; test (5), additive 0.57 v/v %, day 3 after transfection, control 78.5
  TF day 3 Viability: 81.5%
[2]; when the concentration is low
  cell growth and substance production: improving
[1]; DMSO, Table 8
  improving integrity of the genome in produced AAV2 and genome titer (productivity): effective
[1]; test (5), additive 0.57 v/v %, AAV2 produced in cells, control 2.40E+07
  genome titer: 3.35E+07 vg/μL
[1]; test (5), additive 0.57 v/v %, AAV2 produced in cells, control 53.4
  genome integrity: 59.3%

## CCO [ethanol]
[2]; ethanol amounts where intracellular AAV2 genome titer is higher than control
  cell proliferation rate during AAV2 production: equivalent to or higher than in the control condition
[2]; ethanol amounts where intracellular AAV2 genome titer is higher than control, FIG. 1C
  viability of the producing cells on day 3 after transfection: maintained higher than in the control condition
[1]; ethanol 0.09 to 2.2 V/V %, particularly at not exceeding 1.1 v/v %, vs no ethanol, FIG. 1A, 1B
  genome titer of AAV2 both in cells and in the culture supernatant: improved
[1]; ethanol 0.56 v/v %, intracellular AAV2 extract, control 45.6
  genome integrity: 54.7%
[1]; ethanol 0.56 v/v %, intracellular AAV2 extract, ddPCR primer for ITR region, control 4.40E+07
  genome titer: 6.59E+07 vg/μL
[1]; ethanol added within the range of about 2v/v %, FIG. 2A
  percentage of integrated genome in AAV2 in the producing cells: clearly higher
[1]; ethanol addition during AAV2 production, FIG. 2A, 2B
  proportion of the integrated genome in AAV2: improved
[1]; test (1), ethanol 0.56 v/v %, AAV2 produced in cells, control 2.26E+07
  genome titer: 5.05E+07 vg/μL
[1]; test (2), ethanol 0.56 v/v %, AAV2 produced in cells, control 3.23E+07
  genome titer: 3.81E+07 vg/μL
[3]; [7]
  pathway change, CLEAR Signaling Pathway: activated
  pathway change, Estrogen Receptor Signaling: activated
  pathway change, Interferon Signaling: suppressed
  pathway change, NAD Signaling: activated
  pathway change, Necroptosis Signaling Pathway: suppressed
  pathway change, Protein Kinase A Signaling: activated
  pathway change, Role of Hypercytokinemia/hyperchemokinemia in the Pathogenesis of influenza: suppressed
  pathway change, Superpathway of Cholesterol Biosynthesis: activated
[3]; [8]
  Fold Change CAPN5: 2.10
  Fold Change DUSP9: −1.30
  Fold Change GLUL: −1.80
  Fold Change GNG2: 1.75
  Fold Change GNPTG: −1.59
  Fold Change H1-4: −1.33
  Fold Change HPS5: 100
  Fold Change IFI35: 100
  Fold Change IFIT1: −1.60
  Fold Change IFIT3: −1.73
  Fold Change IFITM3: 1.19
  Fold Change ISG15: −1.77
  Fold Change MED14: 1.16
  Fold Change MERTK: 1.44
  Fold Change MITF: −1.33
  Fold Change NAGLU: 100
  Fold Change NGFR: 2.60
  Fold Change NPRL3: 100
  Fold Change PKN (paxillin): −1.31
  Fold Change PRKAG2: 100
  Fold Change SMAD3: 100
  Fold Change TIMM10: −8.00
  Fold Change TNIP1: −100
  Fold Change TRPM1: −2.58
[3]; [9]
  Fold Change BAX: 1.11
  Fold Change CAPN5: 1.51
  Fold Change CCL5: −1.79
  Fold Change DHCR24: −1.03
  Fold Change DXO: 100
  Fold Change FADD: 1.54
  Fold Change GLUL: −1.91
  Fold Change GNG2: 1.60
  Fold Change HADHA: 1.23
  Fold Change HADHB: 1.29
  Fold Change HMGCS1: −1.21
  Fold Change HPS5: 100
  Fold Change IFI35: −100
  Fold Change IFIT1: −1.53
  Fold Change IFIT3: −1.51
  Fold Change INS: 1.58
  Fold Change IRE3 (interferon regulatory factor 3): 1.09
  Fold Change ISG15: −1.52
  Fold Change MED6: −100
  Fold Change MED14: 1.07
  Fold Change MITF: −1.28
  Fold Change MSMG1 (methylsterol monooxygenase 1): −1.07
  Fold Change MT-CYB: 3.49
  Fold Change MT-ND4: −1.65
  Fold Change NAGLU: −1.74
  Fold Change NFKB1: 1.07
  Fold Change NGFR: 2.35
  Fold Change NTN1: −1.60
  Fold Change POLRZI (RNA polymerase II subunit I): −1.42
  Fold Change PPP1R140 (protein phosphatase 1 regulatory inhibitor subunit 14C): −1.29
  Fold Change PRKAG2: 100
  Fold Change PTPRK: −1.31
  Fold Change RAF1: −1.29
  Fold Change RXRA: −1.40
  Fold Change SC5D: 100
  Fold Change SLC29A1: −1.28
  Fold Change TIMM10: 1.51
  Fold Change TNIP1: −100
  Fold Change TOMM6: 1.63
  Fold Change TOMM7: −1.40
  Fold Change TP53: −1.18
[3]; [10]
  Regulated timing, Interferon Signaling: 48 hr, 72 hr
  Regulated timing, Necroptosis Signaling Pathway: 48 hr, 72 hr
  Regulated timing, Role of Hypercytokinemia/hyperchemokinemia in the Pathogenesis of influenza: 72 h
[3]; Pathway where change was identified when ethanol was added, time after transfection
  Regulated timing, Activation of IRF by Cytosolic Pattern recognition receptors: 72 h
[3]; [11]
  Regulated timing, CLEAR Signaling Pathway: 48 hr, 72 hr
  Regulated timing, Estrogen Receptor Signaling: 72 h
  Regulated timing, NAD Signaling: 72 h
  Regulated timing, Protein Kinase A Signaling: 48 hr, 72 hr
  Regulated timing, Superpathway of Cholesterol Biosynthesis: 72 h
[4]; AAV2 produced with addition of ethanol vs control, Table 3
  rate of incorporation of AAV2-derived genome into the produced AAV2 capsid: higher
[4]; test (1), control 2.30
  Full rate: 3.58%
[4]; test (1), control 9.86E+11
  AAV2 particle number: 1.41E+12 particles/mL
[4]; test (2), control 1.04E+12
  AAV2 particle number: 1.13E+12 particles/mL
[4]; test (2), control 3.12
  Full rate: 3.38%
[5]; AAV1, control 3.34E+06
  culture supernatant genome titer: 5.09E+06 vg/μL
[5]; AAV1, control 2.67E+06
  cell lysate genome titer: 4.67E+06 vg/μL
[5]; AAV1, control 43.3
  cell lysate genome integrity: 54.2%
[5]; AAV1, control 49.3
  culture supernatant genome integrity: 58.6%
[5]; AAV6, control 1.20E+05
  culture supernatant genome titer: 1.08E+05 vg/μL
[5]; AAV6, control 1.60E+07
  cell lysate genome titer: 2.05E+07 vg/μL
[5]; AAV6, control 23.7
  culture supernatant genome integrity: 28.6%
[5]; AAV6, control 51.8
  cell lysate genome integrity: 55.1%
[5]; when ethanol was added
  amount of AAV1 produced (genome titer) and genome integrity, in culture supernatant and within cells: improved
  amount of AAV6 produced within cells (genome titer): improved
  genome integrity of AAV6 in culture supernatant and within cells: improved
[6]; AAV2 vector produced with ethanol addition vs control, Table 4
  infection titer (infecting cells and expressing GFP per volume of lysate): high
[6]; ethanol 0.56 v/v %, intracellular AAV2 extract, same amount of genome titer, control 1.36E+08
  infection titer: 1.63E+08 ifu/mL

## OCC(O)CO [Glycerol, glycerol]
[1]; test (3), additive 0.73 v/v %, AAV2 in cells, 3 days after transfection, control 2.26E+07
  genome titer: 4.50E+07 vg/μL
[1]; test (3), additive 0.73 v/v %, AAV2 in cells, control 51.9
  genome integrity: 58.9%
[1]; test (4), additive 0.38 v/v %, AAV2 in cells, control 2.40E+07
  genome titer: 2.78E+07 vg/μL
[1]; test (4), additive 0.38 v/v %, AAV2 in cells, control 53.4
  genome integrity: 55.2%
[1]; test (4), additive 1.15 v/v %, AAV2 in cells, control 2.40E+07
  genome titer: 3.66E+07 vg/μL
[1]; test (4), additive 1.15 v/v %, AAV2 in cells, control 53.4
  genome integrity: 58.5%

## CC(C)O [Isopropanol, isopropanol]
[1]; test (4), additive 0.61 v/v %, AAV2 in cells, control 2.40E+07
  genome titer: 2.26E+07 vg/μL
[1]; test (4), additive 0.61 v/v %, AAV2 in cells, control 53.4
  genome integrity: 58.5%
